Results reported in patent publication US12304890B2, “R-type pyridyloxycarboxylic acid, salt and ester derivative thereof, and preparation method therefor, and herbicidal composition and application thereof” (Qingdao Kingagroot Chemical Compound Co., Ltd., priority 2018, dated 2025).

Legend:
Assay type in all cases: in vivo
Digitaria sanguinalis = assay: Post-emergence test experiment, Digitaria sanguinalis; conditions: 1000 g a.i./ha, 3 weeks in greenhouse, fresh weight inhibition
Description: (§1) The above described growth inhibition rate is fresh weight inhibition rate.
(§2) Post-emergence test experiment: Monocotyledonous and dicotyledonous weed seeds and main crop seeds (i. e. wheat, corn, rice, soybean, cotton, oilseed, millet and sorghum.) were put into a plastic pot loaded with soil. Then covered with 0.5-2 cm soil, the seeds were allowed to grow in good greenhouse environment. The test plants were treated at 2-3 leaf stage 2 weeks after sowing. The test compounds of the invention were dissolved with acetone respectively, then added with tween-80, and using 1.5 liters per hectare of an emulsible concentrate of methyl oleate as a synergist, and diluted by certain amount of water to certain concentration. The solution was sprayed to the plants with a sprayer. Then the plants were cultured for 3 weeks in the greenhouse, and the experiment result of weed controlling effect was listed in tables 4-5.

Echinochloa crusgalli = assay: Post-emergence test experiment, Echinochloa crusgalli; conditions: for Activity level (growth inhibition rate), Echinochloa crusgalli: 1000 g a.i./ha, 3 weeks in greenhouse, fresh weight inhibition
Description: as §1, §2

[1] = test system: Monocotyledonous and dicotyledonous weed seeds and main crop seeds; assay: Post-emergence test experiment, other weeds and crops (Table 4, 1000 g a.i./ha); conditions: 3 weeks in greenhouse, fresh weight inhibition
Description: as §1
as §2, with “sprayer.” for “sprayer. Then the plants were cultured for 3 weeks in the greenhouse, and the experiment result of weed controlling effect was listed in tables 4-5.”

SMILES | Activity level (growth inhibition rate), Digitaria sanguinalis (Digitaria sanguinalis) | Activity level (growth inhibition rate), Echinochloa crusgalli (Echinochloa crusgalli) | Activity level (growth inhibition rate), Abutilon theophrasti Medic. [1] | Activity level (growth inhibition rate), Galium aparine [1] | Activity level (growth inhibition rate), Monochoria Vaginalis [1] | inhibition at 200 g/ha (Echinochloa crusgalli; Echinochloa crus-galli, 504 h, 200 g a.i./ha, 3 weeks, weed resistant to ALS inhibitor and ACCe herbicides, read-out: Echinochloa crusgalli, activity level (growth inhibition rate))
CCCCCOC(=O)[C@@H](C)Oc1nc(F)c(Cl)c(N)c1Cl [Compound 2-85] | 5 (Level 5: the growth inhibition rate is greater than 85%) | 5 (Level 5: the growth inhibition rate is greater than 85%) | 5 (Level 5: the growth inhibition rate is greater than 85%) | 5 (Level 5: the growth inhibition rate is greater than 85%) | 5 (Level 5: the growth inhibition rate is greater than 85%) | –
CC(Oc1nc(F)c(Cl)c(N)c1Cl)C(=O)OC1CCC1 (stereo not shown) [Compound 2-264] | 5 (Level 5: the growth inhibition rate is greater than 85%) | 5 (Level 5: the growth inhibition rate is greater than 85%) | 5 (Level 5: the growth inhibition rate is greater than 85%) | 5 (Level 5: the growth inhibition rate is greater than 85%) | 5 (Level 5: the growth inhibition rate is greater than 85%) | –
COC(=O)[C@@H](C)Oc1nc(F)c(Cl)c(NC(=O)c2ccccc2)c1Cl [Compound 2-379] | 5 (Level 5: the growth inhibition rate is greater than 85%) | 5 (Level 5: the growth inhibition rate is greater than 85%) | 5 (Level 5: the growth inhibition rate is greater than 85%) | 5 (Level 5: the growth inhibition rate is greater than 85%) | 5 (Level 5: the growth inhibition rate is greater than 85%) | –
CCCCCCCCCSC(=O)[C@@H](C)Oc1nc(F)c(Cl)c(N)c1Cl [Compound 2-176] | 5 (Level 5: the growth inhibition rate is greater than 85%) | 5 (Level 5: the growth inhibition rate is greater than 85%) | 5 (Level 5: the growth inhibition rate is greater than 85%) | 5 (Level 5: the growth inhibition rate is greater than 85%) | 5 (Level 5: the growth inhibition rate is greater than 85%) | –
CCCCCCCCOC(=O)[C@@H](C)Oc1nc(F)c(Cl)c(N)c1Cl [Compound 2-155] | 5 (Level 5: the growth inhibition rate is greater than 85%) | 5 (Level 5: the growth inhibition rate is greater than 85%) | 5 (Level 5: the growth inhibition rate is greater than 85%) | 5 (Level 5: the growth inhibition rate is greater than 85%) | 5 (Level 5: the growth inhibition rate is greater than 85%) | –
COC(=O)[C@@H](C)Oc1nc(Cl)c(Cl)c(N)c1Cl [Compound 2-31] | 5 (Level 5: the growth inhibition rate is greater than 85%) | 5 (Level 5: the growth inhibition rate is greater than 85%) | 5 (Level 5: the growth inhibition rate is greater than 85%) | 5 (Level 5: the growth inhibition rate is greater than 85%) | 5 (Level 5: the growth inhibition rate is greater than 85%) | –
CC(Oc1nc(F)c(Cl)c(N)c1Cl)C(=O)OC1CCCO1 (stereo not shown) [Compound 2-297] | 5 (Level 5: the growth inhibition rate is greater than 85%) | 5 (Level 5: the growth inhibition rate is greater than 85%) | 5 (Level 5: the growth inhibition rate is greater than 85%) | 5 (Level 5: the growth inhibition rate is greater than 85%) | 5 (Level 5: the growth inhibition rate is greater than 85%) | –
CCC(OC)OC(=O)C(C)Oc1nc(F)c(Cl)c(N)c1Cl (stereo not shown) [Compound 2-291] | 5 (Level 5: the growth inhibition rate is greater than 85%) | 5 (Level 5: the growth inhibition rate is greater than 85%) | 5 (Level 5: the growth inhibition rate is greater than 85%) | 5 (Level 5: the growth inhibition rate is greater than 85%) | 5 (Level 5: the growth inhibition rate is greater than 85%) | –
COC(=O)[C@@H](C)Oc1nc(F)c(Cl)c(NCc2ccc(C(F)(F)F)o2)c1Cl [Compound 2-387] | 5 (Level 5: the growth inhibition rate is greater than 85%) | 5 (Level 5: the growth inhibition rate is greater than 85%) | 5 (Level 5: the growth inhibition rate is greater than 85%) | 5 (Level 5: the growth inhibition rate is greater than 85%) | 5 (Level 5: the growth inhibition rate is greater than 85%) | –
CCC(C)(C)OC(=O)C(C)Oc1nc(F)c(Cl)c(N)c1Cl (stereo not shown) [Compound 2-99] | 5 (Level 5: the growth inhibition rate is greater than 85%) | 5 (Level 5: the growth inhibition rate is greater than 85%) | 5 (Level 5: the growth inhibition rate is greater than 85%) | 5 (Level 5: the growth inhibition rate is greater than 85%) | 5 (Level 5: the growth inhibition rate is greater than 85%) | –
CCCCCCCCCOC(=O)[C@@H](C)Oc1nc(F)c(Cl)c(N)c1Cl [Compound 2-175] | 5 (Level 5: the growth inhibition rate is greater than 85%) | 5 (Level 5: the growth inhibition rate is greater than 85%) | 5 (Level 5: the growth inhibition rate is greater than 85%) | 5 (Level 5: the growth inhibition rate is greater than 85%) | 5 (Level 5: the growth inhibition rate is greater than 85%) | –
C[C@@H](Oc1nc(F)c(Cl)c(N)c1Cl)C(=O)OCc1ccsc1 [Compound 2-351] | 5 (Level 5: the growth inhibition rate is greater than 85%) | 5 (Level 5: the growth inhibition rate is greater than 85%) | 5 (Level 5: the growth inhibition rate is greater than 85%) | 5 (Level 5: the growth inhibition rate is greater than 85%) | 5 (Level 5: the growth inhibition rate is greater than 85%) | –
CC(Oc1nc(F)c(Cl)c(N)c1Cl)C(=O)OCc1ccc(Br)cc1 (stereo not shown) [Compound 2-324] | 5 (Level 5: the growth inhibition rate is greater than 85%) | 5 (Level 5: the growth inhibition rate is greater than 85%) | 5 (Level 5: the growth inhibition rate is greater than 85%) | 5 (Level 5: the growth inhibition rate is greater than 85%) | 5 (Level 5: the growth inhibition rate is greater than 85%) | –
C[C@@H](Oc1nc(F)c(Cl)c(N)c1Cl)C(=O)Sc1cccn1C [Compound 2-368] | 5 (Level 5: the growth inhibition rate is greater than 85%) | 5 (Level 5: the growth inhibition rate is greater than 85%) | 5 (Level 5: the growth inhibition rate is greater than 85%) | 5 (Level 5: the growth inhibition rate is greater than 85%) | 5 (Level 5: the growth inhibition rate is greater than 85%) | –
C[C@@H](Oc1nc(F)c(Cl)c(N)c1Cl)C(=O)Sc1ccc2ccccc2c1 [Compound 2-339] | 5 (Level 5: the growth inhibition rate is greater than 85%) | 5 (Level 5: the growth inhibition rate is greater than 85%) | 5 (Level 5: the growth inhibition rate is greater than 85%) | 5 (Level 5: the growth inhibition rate is greater than 85%) | 5 (Level 5: the growth inhibition rate is greater than 85%) | –
C[C@H](Oc1nc(F)c(Cl)c(N)c1Cl)C(=O)OCC1CCCO1 (stereo partly shown) [reference compound] | – | – | – | – | – | 5 to 20%
